Paper PMC10819771 (Pharmaceuticals, 2023)
Like-named read-outs stand apart in the source and are kept apart here.

Assays:
HeLa = experiment: MTT antiproliferative assay, HeLa; assay type: cell-based, human; details: MTT, 72 h, cervical cancer cells, read-out: IC50 Values (μM) ± SEM HeLa
Procedure: (§1) The growth-inhibitory effects of the compounds were determined by MTT (3-(4,5-dimethylthiazol-2-yl)-2,5-diphenyltetrazolium bromide) assay on selected cell lines, including HeLa and SiHa (cervical cancers), MDA-MB-231 and MCF-7 (breast cancers), and A2780 ovarian cancer cells. All cell lines were purchased from the European Collection of Cell Cultures (Salisbury, UK) except SiHa, which was obtained from the American Tissue Culture Collection (Manassas, VA, USA). The cells were kept in minimum essential medium supplemented with 10% fetal bovine serum, 1% non-essential amino acids, and 1% penicillin-streptomycin-amphotericin-B at 37 °C in a humidified atmosphere containing 5% CO2. Media and supplements were obtained from Lonza Group Ltd., (Basel, Switzerland). Cancer cells were seeded onto 96-well plates (5000 cells/well), after an overnight incubation the test compounds were added in six concentrations (0.1, 0.3, 1.0, 3.0, 10.0, 30.0 µM) and incubated for 72 h under cell-culture condition. After the incubation, 20 μL of 5 mg/mL MTT solution was added to each well and incubated for a further 4 h. The medium was removed, and the precipitated formazan crystals were dissolved in DMSO for 30 min under shaking at 37 °C. The absorbance was measured at 545 nm with a microplate reader. Untreated cells were included as controls. Calculations were performed by means of the GraphPad Prism 5.01 software (GraphPad Software Inc., San Diego, CA, USA). At least two independent determinations were performed with 5 parallel wells for each condition.

SiHa = experiment: MTT antiproliferative assay, SiHa; assay type: cell-based, human; details: MTT, 72 h, cervical cancer cells, read-out: IC50 Values (μM) ± SEM SiHa
Procedure: as §1

MCF-7 = experiment: MTT antiproliferative assay, MCF-7; assay type: cell-based, human; details: MTT, 72 h, breast cancer cells, read-out: IC50 Values (μM) ± SEM MCF-7
Procedure: as §1

MDA-MB-231 = experiment: MTT antiproliferative assay, MDA-MB-231; assay type: cell-based, human; details: MTT, 72 h, breast cancer cells, read-out: IC50 Values (μM) ± SEM MDA-MB-231
Procedure: as §1

A2780 = experiment: MTT antiproliferative assay, A2780; assay type: cell-based, human; details: MTT, 72 h, ovarian cancer cells, read-out: IC50 Values (μM) ± SEM A2780
Procedure: as §1

K562 = experiment: MTS cell proliferation assay, K562; assay type: cell-based, human; details: MTS, 3-day incubation, leukemia cells, read-out: IC50 Values (μM) ± SEM K562
Procedure: The human leukemic cell line K562 was grown in RPMI 1640 medium (Life Technology-Invitrogen by Thermo Fisher Scientific, Saint-Aubin, France) supplemented with 10% fetal calf serum (FCS), antibiotics (100 U/mL penicillin, 100 µg/mL streptomycin), and L-glutamine, (Eurobio, Les Ulis, France) at 37 °C, 5% CO2 in air. The MTS cell proliferation assay (Promega, Charbonnières-les-Bains, France) is a colorimetric assay system, which measures the transformation of a tetrazolium component (MTS) into formazan produced by the mitochondria of viable cells. Cells were washed twice in PBS (Phosphate Buffer Saline) and plated in quadruplicate into microtiter-plate wells in 100 μL culture media with or without our various compounds at increasing concentrations (0, 1, 5, 10, 20, and 50 μM) for 1, 2, and 3 days. After 3 h of incubation at 37 °C with 20 μL MTS/well, the plates were read using an ELISA microplate reader (Thermo, Electrocorporation, Waltham, MA, USA) at 490 nm. The amount of color produced was directly proportional to the number of viable cells. The results are expressed as the concentrations inhibiting cell growth by 50% after a 3-day incubation period. The 50% cytotoxic concentrations (CC50) were determined by linear regression analysis, expressed in μM ± SD (Microsoft Excel).

Fc-MYCT = experiment: FRET-melting, Fc-MYCT; assay type: binding; details: ligand 2 μM, DNA 0.2 μM, K+ conditions, pH 7.2
Procedure: (§2) FRET-melting experiments were conducted on a Stratagene MX3005P (Thermo Fisher Scientific, Illkirch-Graffenstaden, France) real-time PCR equipment in 96-well plates on the DNA sequences reported in Table 4. Experiments were performed in 10 mM lithium cacodylate buffer (pH 7.2) and either 10 mM KCl and 90 mM LiCl (FK-RAST, FBCL-2T, F21T, and FdxT) or 1 mM KCl and 99 mM LiCl (Fc-MYCT) concentrations, depending on the Tm of the G4s alone. The DNA concentration was 0.2 µM. […] Data are presented as an average of three independent measurements, each conducted in duplicate conditions (λexc = 492 nm, λem = 516 nm, T interval = 25–95 °C, ramp: 25 °C for 5 min, then 1 °C/min, measurements every 1 °C, 8× magnification of the fluorescence signal).

FK-RAST = experiment: FRET-melting, FK-RAST; assay type: binding; details: ligand 2 μM, DNA 0.2 μM, 10 mM KCl, 90 mM LiCl, pH 7.2
Procedure: as §2

FBCL-2T = experiment: FRET-melting, FBCL-2T; assay type: binding; details: ligand 2 μM, DNA 0.2 μM, 10 mM KCl, 90 mM LiCl, pH 7.2
Procedure: as §2

[1] = tested on: human telomeric sequence F21T; experiment: FRET-melting, F21T; assay type: binding; details: ligand 2 μM, DNA 0.2 μM, 10 mM KCl, 90 mM LiCl, pH 7.2
Procedure: as §2

FdxT = experiment: FRET-melting, duplex control FdxT; assay type: binding; details: ligand 2 μM, DNA 0.2 μM, 10 mM KCl, 90 mM LiCl, pH 7.2, hairpin duplex
Procedure: as §2

Row | Compound | IC50 (HeLa) [µM] | IC50 (SiHa) [µM] | IC50 (MCF-7) [µM] | IC50 (MDA-MB-231) [µM] | IC50 (A2780) [µM] | IC50 (K562) [µM] | ΔT1/2 (°C) Fc-MYCT (Fc-MYCT) [°C] | ΔT1/2 (°C) FK-RAST (FK-RAST) [°C] | ΔT1/2 (°C) FBCL-2T (FBCL-2T) [°C] | ΔT1/2 (°C) F21T [1] [°C] | ΔT1/2 (°C) FdxT (FdxT) [°C] | IC50 (HeLa; Homo sapiens, HeLa) [µM] | IC50 (SiHa; Homo sapiens, SiHa) [µM] | IC50 (MCF-7; Homo sapiens, MCF7, 72 h) [µM] | IC50 (MDA-MB-231; Homo sapiens, MDA-MB-231, 72 h) [µM] | IC50 (A2780; Homo sapiens, A2780) [µM] | IC50 (K562; Homo sapiens, K562, 72 h) [µM]
1 | 2,4-bis{4-[(4-(3-methylpiperazin-1-yl)propyl)aminomethyl]phenyl}-6-phenylquinazoline [Compound 12d] | 1.32 ± 0.02 | 1.28 ± 0.27 | 1.01 ± 0.3 | 1.44 ± 0.17 | 1.74 ± 0.11 | 17 ± 0.4 | 8.4 ± 0.9 | 15.5 ± 0.5 | 9.7 ± 0.06 | 15.8 ± 1.2 | 0.5 ± 0.3 | – | – | – | – | – | –
2 | CN(C)CCCCNCc1ccc(-c2nc(-c3ccc(CNCCCCN(C)C)cc3)c3cc(-c4ccccc4)ccc3n2)cc1 [Compound 12c, 2,4-bis{4-[(4-dimethylaminobutyl)aminomethyl]phenyl}-6-phenylquinazoline] | – | – | – | – | – | – | 17.7 ± 0.8 | 24.5 ± 0.7 | 16.4 ± 0.4 | 28.0 ± 0.4 | 3.8 ± 0.8 | 2.21 ± 0.86 | 0.76 ± 0.01 | 1.44 ± 0.03 | 1.07 ± 0.42 | 2.04 ± 0.54 | 7 ± 0.2
3 | CN(C)CCCCCNCc1ccc(-c2nc(-c3ccc(CNCCCCCN(C)C)cc3)c3ccc(-c4ccccc4)cc3n2)cc1 [Compound 12h, 2,4-bis{4-[(5-dimethylaminopentyl)aminomethyl]phenyl}-7-phenylquinazoline] | – | – | – | – | – | – | 18.7 ± 0.2 | 28.6 ± 2.1 | 18.2 ± 1.7 | 28.1 ± 2.3 | 2.7 ± 1.0 | 2.31 ± 0.76 | 0.75 ± 0.01 | 1.19 ± 0.27 | 1.1 ± 0.38 | 1.43 ± 0.07 | 13 ± 0.2
4 | CN(C)CCCNCc1ccc(-c2nc(-c3ccc(CNCCCN(C)C)cc3)c3cccc(-c4ccccc4)c3n2)cc1 [Compound 12k, 2,4-bis{4-[(3-dimethylaminopropyl)aminomethyl]phenyl}-8-phenylquinazoline] | – | – | 1.24 ± 0.14 | – | – | – | 9.9 ± 1.4 | 13.0 ± 0.4 | 9.5 ± 0.2 | – | 0.8 ± 0.1 | 1.19 ± 0.24 | 1.01 ± 0.27 | 1.12 to 1.24 | 1.36 ± 0.06 | 1.34 ± 0.14 | 7 ± 0.1
5 | CN(C)CCCCNCc1ccc(-c2nc(-c3ccc(CNCCCCN(C)C)cc3)c3cccc(-c4ccccc4)c3n2)cc1 [Compound 12l, 2,4-bis{4-[(4-dimethylaminobutyl)aminomethyl]phenyl}-8-phenylquinazoline] | – | – | – | – | – | – | 14.2 ± 1.1 | 18.7 ± 0.8 | 17.2 ± 1.2 | 24.9 ± 0.3 | 2.9 ± 0.2 | 1.39 ± 0.16 | 1.14 ± 0.51 | 1.45 ± 0.02 | 1.55 ± 0.12 | 2.08 ± 0.48 | 7 ± 0.2
6 | CC1CN(CCCNCc2ccc(-c3nc(-c4ccc(CNCCCN5CCNC(C)C5)cc4)c4cccc(-c5ccccc5)c4n3)cc2)CCN1 (stereo not drawn) [Compound 12m, 2,4-bis{4-[(4-(3-methylpiperazin-1-yl)propyl)aminomethyl]phenyl}-8-phenylquinazoline] | 1.17 ± 0.23 | 0.88 ± 0.14 | 1.22 ± 0.19 | 2 ± 0.45 | 2.1 ± 0.48 | 7 ± 0.2 | 14.6 ± 0.9 | 18.2 ± 0.6 | 15.5 ± 0.3 | 23.3 ± 0.7 | 2.2 ± 0.2 | – | – | – | – | – | –
7 | CN1CCN(CCCCNCc2ccc(-c3nc(-c4ccc(CNCCCCN5CCN(C)CC5)cc4)c4cccc(-c5ccccc5)c4n3)cc2)CC1 [Compound 12n, 2,4-bis{4-[(4-(4-methylpiperazin-1-yl)butyl)aminomethyl]phenyl}-8-phenylquinazoline] | – | – | – | – | – | – | 17.0 ± 2.0 | 18.0 ± 2.5 | 12.0 ± 2.0 | 20.7 ± 3.1 | 2.4 ± 0.7 | 3.51 ± 0.17 | 1.89 ± 0.74 | 4.17 ± 0.5 | 3.94 ± 0.54 | 7.1 ± 1.15 | 14 ± 0.3
8 | CN(C)CCCCNCc1ccc(-c2cc(-c3ccc(CNCCCCN(C)C)cc3)c3cc(-c4ccccc4)ccc3n2)cc1 [Compound 13b, 2,4-bis{4-[(4-dimethylaminobutyl)aminomethyl]phenyl}-6-phenylquinoline] | – | – | – | – | – | – | 13.8 ± 3.0 | 19.6 ± 3.5 | 11.1 ± 2.6 | 13.6 ± 2.9 | 1.5 ± 0.6 | 3.58 ± 0.18 | 1.76 ± 0.61 | 3.03 ± 0.64 | 3.68 ± 0.8 | 6.49 ± 1.76 | 13 ± 0.4
9 | CC1CN(CCCNCc2ccc(-c3cc(-c4ccc(CNCCCN5CCNC(C)C5)cc4)c4cc(-c5ccccc5)ccc4n3)cc2)CCN1 (stereo not drawn) [Compound 13c, 2,4-bis{4-[(4-(3-methylpiperazin-1-yl)propyl)aminomethyl]phenyl}-6-phenylquinoline] | 1.3 ± 0.06 | 1.45 ± 0.13 | 0.86 ± 0.38 | 1.33 ± 0.13 | 1.58 ± 0.1 | 34 ± 0.7 | 6.8 ± 1.4 | 14.5 ± 0.8 | 7.5 ± 0.5 | 11.3 ± 0.9 | 0.1 ± 0.2 | – | – | – | – | – | –
